Measured values as given in patent US7951802B2, “Use of 7-azaindoles in the inhibition of c-Jun N-terminal kinase” (Eisai R&D Management Co., Ltd., priority 2007, dated 2011).

What was measured:
[1] = test system: panel of 100 kinases; assay: Selectivity against a panel of kinases (Upstate/Millipore), expressed as Gini coefficient; type: biochemical; details: reference compounds with aromatic C(5) group, calculated from Table 4 data, concentration not given
Experimental: Selectivity of Compounds (I) Against a Panel of Kinases
Inhibitory potency of compound (I-8) and (I-60) at a concentration of 1 micromolar and (I-69) and (I-70) at a concentration of 5 micromolar with ATP concentration of 10 micromolar was determined at Upstate/Millipore against a panel of 100 kinases representing all major families within the kinome. The results are presented in Table 3 and are expressed as percentage of remaining activity.
For comparison purposes Table 4 contains the relevant inhibitory data for reference compounds A-L containing a (hetero)aromatic ring at C(5) of the 7-azaindole system.
Selectivity Expressed as Gini Coefficient
Selectivity of compounds according to the present invention and reference compounds expressed as Gini coefficient (J. Med. Chem. 2007, 50, 5773-5779) is shown in Table 5. The individual Gini coefficients have been calculated using the data in Tables 3 and 4. Value Gini=0 corresponds to a totally non-selective compound; value Gini=1 reflects perfect selectivity (inhibition of a single target only)

[2] = biological target: JNK3 (Homo sapiens, UniProt P53779); assay: JNK3 SPA assay (phosphorylation of GST-c-Jun); type: biochemical; details: 3.33 μM ATP, GST-c-Jun substrate, read-out: IC50 against JNK3
Sequence of JNK3 (P53779 whole entry, species assumed): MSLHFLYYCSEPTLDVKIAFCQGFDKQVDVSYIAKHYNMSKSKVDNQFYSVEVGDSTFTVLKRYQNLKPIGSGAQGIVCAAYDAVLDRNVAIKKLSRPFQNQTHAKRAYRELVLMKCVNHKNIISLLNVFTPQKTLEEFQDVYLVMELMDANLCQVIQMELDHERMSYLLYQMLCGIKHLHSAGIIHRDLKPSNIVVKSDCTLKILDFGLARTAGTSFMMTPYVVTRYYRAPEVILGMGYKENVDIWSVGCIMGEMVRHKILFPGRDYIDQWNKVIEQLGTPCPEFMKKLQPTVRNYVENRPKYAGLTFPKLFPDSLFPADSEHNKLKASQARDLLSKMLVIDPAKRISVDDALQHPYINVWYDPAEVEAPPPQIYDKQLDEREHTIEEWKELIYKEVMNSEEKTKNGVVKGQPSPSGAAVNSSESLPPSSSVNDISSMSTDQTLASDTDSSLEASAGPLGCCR
Experimental: JNK1, JNK2, JNK3—SPA Assay
JNK1, JNK2, JNK3—SPA Assay • 1. Compound is dissolved in DMSO to a convenient concentration and this is diluted in 10% DMSO to a five times concentrate of the desired starting concentration (frequently 1:100). • 2. 10 μl of 500 mM EDTA is added to alternative wells of the Opti-plate row, which will receive kinase reaction plus DMSO. This creates the negative control. • 3. For the JNK2 and JNK3 assay, compounds are prepared in six 2-fold dilutions with water and each concentration is tested in duplicate. For the JNK1 assay compounds are prepared in four 5-fold dilutions with water which are tested in triplicate. Controls are treated identically. • 4. 20 μl per well of each compound concentration is transferred to an Opti-plate, in duplicate. • 5. 30 μl (JNK2/3 SPA) or 50 μl (JNK1 SPA) of substrate solution (25 mM HEPES pH 7.5, 10 mM magnesium acetate with 3.33 μM ATP (JNK2/3) or 2 μM ATP (JNK1), approximately 7.5 kBq [γ-^33P] ATP, GST-c-Jun, in water) is added to each well. • 6. 50 μl (JNK2/3 SPA) or 30 μl (JNK1 SPA) of kinase solution (JNK in 25 mM HEPES pH 7.5, 10 mM Mg Acetate) is added to each well.
• 7. The plate is incubated for 30 minutes at room temperature. • 8. 100 μl of bead/stop solution is added to each well (5 mg/ml glutathione-PVT-SPA beads, 40 mM ATP in PBS). • 9. Plates are sealed and incubated for 30 minutes at room temperature, centrifuged for 10 minutes at 2500 g and counted. • 10. The IC50 values are calculated as the concentration of the compound being tested at which the phosphorylation of c-Jun is decreased to 50% of the control value.

| SMILES | IC50 [2] [µM] | Selectivity expressed as Gini coefficient [1] |
| --- | --- | --- |
| O=C(c1nc(-c2c[nH]c3ncc(-c4ccccc4)cc23)cs1)N1CCOCC1 [K] | – | 0.2968 |
| CN1CCC(c2csc(-c3cnc4[nH]cc(-c5cnn(C)c5)c4c3)n2)CC1 [E] | – | 0.3757 |
| CN1CCN(c2nc(-c3c[nH]c4ncc(-c5ccccc5)cc34)cs2)CC1 [H] | – | 0.4917 |
| Cn1cc(-c2c[nH]c3ncc(-c4ccc(N5CCOCC5)cc4)cc23)cn1 [B] | – | 0.3920 |
| CN1CCN(C(=O)c2nc(-c3c[nH]c4ncc(-c5ccc(N6CCN(C)CC6)cc5)cc34)cs2)CC1 [J] | – | 0.3286 |
| c1nc2[nH]cc(-c3cn[nH]c3)c2cc1-c1csc(C2CCNCC2)n1 [C] | – | 0.4129 |
| CN(C)C(=O)c1nc(-c2c[nH]c3ncc(-c4ccccc4)cc23)cs1 [G] | – | 0.3501 |
| CN(C)c1ccc(-c2cnc3[nH]cc(-c4cn[nH]c4)c3c2)cc1 [A] | – | 0.3368 |
| CN1CCN(c2ccc(-c3cnc4[nH]cc(-c5csc(C(=O)N6CCCCC6)n5)c4c3)cc2)CC1 [D] | – | 0.2705 |
| c1ncc(-c2c[nH]c3ncc(-c4ccc(N5CCOCC5)cc4)cc23)s1 [L] | – | 0.3642 |
| CC(C)Cn1cc(-c2cnc3[nH]cc(-c4cnn(C)c4)c3c2)cn1 [F] | – | 0.3777 |

Further lines, with some results ahead:

| IC50 [2] [µM] | SMILES | Selectivity expressed as Gini coefficient [1] |
| --- | --- | --- |
| 3.31 | Cc1nc(-c2c[nH]c3ncc([C@H]4CC[C@H](N5CCCC5)CC4)cc23)cs1 [Compound I-74, 2-methyl-4-(5-((1r,4r)-4-(pyrrolidin-1-yl)cyclohexyl)-1H-pyrrolo[2,3-b]pyridin-3-yl)thiazole] | – |
| 1.33 | O=C(c1nc(-c2c[nH]c3ncc([C@H]4CC[C@@H](N5CCOCC5)CC4)cc23)cs1)N1CCOCC1 [Compound I-31, morpholino(4-(5-((1s,4s)-4-morpholinocyclohexyl)-1H-pyrrolo[2,3-b]pyridin-3-yl)thiazol-2-yl)methanone] | – |
| 0.513 | FC(F)(F)c1csc(-c2c[nH]c3ncc([C@H]4CC[C@H](N5CCCOCC5)CC4)cc23)n1 [Compound I-80, 4-((1r,4r)-4-(3-(4-(trifluoromethyl)thiazol-2-yl)-1H-pyrrolo[2,3-b]pyridin-5-yl)cyclohexyl)-1,4-oxazepane] | – |
| 0.24 | CN1CCC(c2nc(-c3c[nH]c4ncc(C5CCCCC5)cc34)cs2)CC1 [Compound I-11, 5-Cyclohexyl-3-[2-(1-methyl-piperidin-4-yl)-thiazol-4-yl]-1H-pyrrolo[2,3-b]pyridine] | – |
| 0.086 | CN1CCN(C(=O)c2nc(-c3c[nH]c4ncc(C5=CCCC5)cc34)cs2)CC1 [Compound I-5, [4-(5-Cyclopent-1-enyl-1H-pyrrolo[2,3-b]pyridin-3-yl)-thiazol-2-yl]-(4-methyl-piperazin-1-yl)-methanone] | – |
| > 1 | Cc1nc(-c2c[nH]c3ncc([C@H]4CC[C@H](N5CCCOCC5)CC4)cc23)cs1 [Compound I-75, 4-((1r,4r)-4-(3-(2-methylthiazol-4-yl)-1H-pyrrolo[2,3-b]pyridin-5-yl)cyclohexyl)-1,4-oxazepane] | – |
| 0.933 | Cc1csc(-c2c[nH]c3ncc(C4CCCCC4)cc23)n1 [Compound I-51, 2-(5-cyclohexyl-1H-pyrrolo[2,3-b]pyridin-3-yl)-4-methylthiazole] | – |
| 0.016 | CC1CCC(c2cnc3[nH]cc(-c4csc(C(=O)N5CCN(C)CC5)n4)c3c2)CC1 (stereo not shown) [Compound I-22, {4-[5-(4-Methyl-cyclohexyl)-1H-pyrrolo[2,3-b]pyridin-3-yl]-thiazol-2-yl}-(4-methyl-piperazin-1-yl)-methanone] | – |
| 1.45 | Cc1cnc(-c2c[nH]c3ncc([C@H]4CC[C@H](N5CCCOCC5)CC4)cc23)s1 [Compound I-121, 3-(5-methyl-1,3-thiazol-2-yl)-5-[trans-4-(1,4-oxazepan-4-yl)cyclohexyl]-1H-pyrrolo[2,3-b]pyridine] | – |
| 0.434 | CN1CCC(c2nc(-c3c[nH]c4ncc(C5=CCCC5)cc34)cs2)CC1 [Compound I-1, 5-Cyclopent-1-enyl-3-[2-(1-methyl-piperidin-4-yl)-thiazol-4-yl]-1H-pyrrolo[2,3-b]pyridine] | – |
| 0.147 | CN(C)C(=O)c1nc(-c2c[nH]c3ncc(C4CCCCC4)cc23)cs1 [Compound I-9, 4-[5-cyclohexyl-1H-pyrrolo[2,3-b]pyridin-3-yl]-thiazole-2-carboxylic acid dimethylamide] | – |
| 0.52 | COc1nc(-c2c[nH]c3ncc([C@H]4CC[C@H](N5CCCOCC5)CC4)cc23)cs1 [Compound I-124, 3-(2-methoxy-1,3-thiazol-4-yl)-5-[trans-4-(1,4-oxazepan-4-yl)cyclohexyl]-1H-pyrrolo[2,3-b]pyridine] | – |
| 0.151 | CC1CC=C(c2cnc3[nH]cc(-c4csc(C(=O)N5CCOCC5)n4)c3c2)CC1 (stereo not shown) [Compound I-13, {4-[5-(4-Methyl-cyclohex-1-enyl)-1H-pyrrolo[2,3-b]pyridin-3-yl]-thiazol-2-yl}-morpholin-4-yl-methanone] | – |
| 1.82 | FC(F)(F)c1csc(-c2c[nH]c3ncc([C@H]4CC[C@@H](N5CCCC5)CC4)cc23)n1 [Compound I-85, 2-(5-((1s,4s)-4-(pyrrolidin-1-yl)cyclohexyl)-1H-pyrrolo[2,3-b]pyridin-3-yl)-4-(trifluoromethyl)thiazole] | – |
